Reference: patent publication US5817840A, “Water soluble taxol derivatives” (The Scripps Research Institute, priority 1997, dated 1998)
Values after ≈ are worked out from the molar mass of the structure shown. Where two headings read alike, the source gives them in different places.

Legend:
[1] = tested on: HL-60 (promyel carcinoma); test: Cytotoxicity (sulphorhodamine B), cancer cell line, Table 1B; assay type: cell-based; details: Homo sapiens
Method: (§1) The cytotoxicities were determined using the sulphorhodamine B assay method (Skehan, P. et al. J. Nat. Canc. Inst. 82, 1107 (1990)).

[2] = tested on: HT-29 (colon carcinoma); test: as above; assay type: cell-based; details: Homo sapiens
Method: as §1

[3] = tested on: L1210 (mouse leukaemia); test: as above; assay type: cell-based
Method: as §1

[4] = tested on: RPMI-7666 (normal human PBLs); test: Cytotoxicity (sulphorhodamine B), normal cell line, Table 1B; assay type: cell-based
Method: as §1

[5] = tested on: MCF-7 (breast carcinoma); test: Cytotoxicity (sulphorhodamine B), cancer cell line, Table 1B; assay type: cell-based; details: Homo sapiens
Method: as §1

[6] = tested on: Capan-1 (pancreatic); test: as above; assay type: cell-based; details: Homo sapiens
Method: as §1

[7] = tested on: BT-549 (breast carcinoma); test: as above; assay type: cell-based; details: Homo sapiens
Method: as §1

[8] = tested on: OVCAR-3 (ovarian carcinoma); test: as above; assay type: cell-based; details: Homo sapiens, OVCAR-3, 72 h
Method: as §1

[9] = tested on: PC-3 (prostate carcinoma); test: as above; assay type: cell-based; details: Homo sapiens
Method: as §1

[10] = tested on: NHDF (normal human skin); test: Cytotoxicity (sulphorhodamine B), normal cell line, Table 1B; assay type: cell-based
Method: as §1

[11] = tested on: 786-0 (renal cell carcinoma); test: Cytotoxicity (sulphorhodamine B), cancer cell line, Table 1B; assay type: cell-based; details: Homo sapiens
Method: as §1

[12] = tested on: H322 (lung carcinoma); test: as above; assay type: cell-based
Method: as §1

[13] = tested on: SIHA (cervix carcinoma); test: as above; assay type: cell-based; details: Homo sapiens
Method: as §1

[14] = tested on: CHO (Chinese hamster ovary); test: Cytotoxicity (sulphorhodamine B), normal cell line, Table 1B; assay type: cell-based; details: Cricetulus griseus
Method: as §1

[15] = tested on: BALB/c 3T3 (normal mouse embryo); test: as above; assay type: cell-based
Method: as §1

[16] = tested on: SK (melanoma); test: Cytotoxicity (sulphorhodamine B), cancer cell line, Table 1B; assay type: cell-based
Method: as §1

[17] = tested on: MOLT-4 (T-cell leukaemia); test: as above; assay type: cell-based; details: Homo sapiens
Method: as §1

[18] = tested on: UCLA-P-3 (lung carcinoma); test: as above; assay type: cell-based; details: Homo sapiens
Method: as §1

[19] = tested on: CHO (normal human mammary); test: Cytotoxicity (sulphorhodamine B), normal cell line, Table 1B; assay type: cell-based
[20] = Water solubility in D2O by 1H NMR; details: d2o
Method: The solubilities of the synthesized protaxols in D2 O were determined by 1H NMR spectroscopy.
The resulting mixture was centrifuged for 20 minutes and the supernatant saturated solution was analysed by ^1 H NMR spectroscopy using a Bruker AMX-400 instrument and methanol or pyridine as internal standard. The concentration of the compound was determined by comparing several signals with the CH3 signal of methanol or the NCH signal of pyridine.

[21] = Taxol release from protaxols in aqueous buffer; assay type: physicochemical; details: aqueous buffer
Method: The derivatives in which the C-7 hydroxyl group was acetylated were extremely unstable in aqueous media losing the C-7 substituent very rapidly. The stability of the synthesized compounds was examined at various pH's and temperatures. […] Table 1A includes the half-lives of six of these compounds at pH 7.5 and 9. […] This illustrates the ability to fine-tune the rate of release of taxol to a desired set of conditions using simple chemical principles.
Protaxol 5 was dissolved in dimethylsulphoxide (DMSO) at 25° C. and immediately added to the appropriate phosphate buffer solution at the specified temperature. Aliquots were analysed using a Waters Maxima system HPLC instrument equipped with auto-injector (3.9×300 mm C18 column equipped with a precolumn; flow rate, 1.5 ml min^-1; eluant, gradient A-B, where A is 80% 100 mM ammonium acetate, buffer pH 6.0, and B is 100% methanol; ultraviolet detector). The per cent taxol released was determined from the relative areas of the peaks corresponding to protaxol 5 and taxol (the conversion was clean, and it was assumed that the two compounds have equal molar extinction coefficients).

[22] = pH 7.5, 37° C., read-out: t1/2 (pH 7.5), 50% taxol release
[23] = pH 9, 37° C., read-out: t1/2 (pH 9), 50% taxol release

CC(=O)O[C@H]1C(=O)[C@@]2(C)[C@H]([C@H](OC(=O)c3ccccc3)[C@]3(O)C[C@H](OC(=O)[C@H](OC(=O)OCCS(=O)(=O)c4ccc(N)cc4)[C@@H](NC(=O)c4ccccc4)c4ccccc4)C(C)=C1C3(C)C)[C@]1(OC(C)=O)CO[C@@H]1C[C@@H]2O [Compound 10]
IC50 ([1]; HL-60, 72 h): < 0.001 µM
IC50 ([2]; HT-29, 72 h): < 0.001 µM
IC50 ([3]; L1210, 72 h): 10 µM
IC50 ([4]; 72 h): 100 µM
IC50 ([5]; MCF7, 72 h): 10 µM
IC50 ([6]; CAPAN-1, 72 h): < 0.001 µM
IC50 ([7]; BT-549, 72 h): 0.1 µM
IC50 [8]: < 0.001 µM
IC50 ([9]; 72 h): 1 µM
IC50 ([10]; 72 h): 1 µM
IC50 ([11]; 786-0, 72 h): 1 µM
IC50 ([12]; NCI-H322, 72 h): 0.01 µM
IC50 ([13]; SiHa, 72 h): 10 µM
IC50 ([14]; 72 h): 100 µM
IC50 ([15]; BALB/c3T3, 72 h): 10 µM
IC50 ([16]; 72 h): 10 µM
IC50 ([17]; MOLT-4, 72 h): < 0.001 µM
IC50 ([18]; UCLA P-3, 72 h): < 0.001 µM
IC50 ([19]; Homo sapiens, 72 h): 100 µM

CC(=O)O[C@H]1C(=O)[C@@]2(C)[C@H]([C@H](OC(=O)c3ccccc3)[C@]3(O)C[C@H](OC(=O)[C@H](OC(=O)CS(=O)(=O)CC(=O)O)[C@@H](NC(=O)c4ccccc4)c4ccccc4)C(C)=C1C3(C)C)[C@]1(OC(C)=O)CO[C@@H]1C[C@@H]2O [drawing 7]
solubility [20]: 1200 µg/mL (≈ 1180 µM)
half-life [21, 22]: > 8.33 h
half-life [21, 23]: 0.5 h

CC(=O)O[C@H]1C(=O)[C@@]2(C)[C@H]([C@H](OC(=O)c3ccccc3)[C@]3(O)C[C@H](OC(=O)[C@H](OC(=O)OCCS(=O)(=O)c4ccc(N)cc4)[C@@H](NC(=O)c4ccccc4)c4ccccc4)C(C)=C1C3(C)C)[C@]1(OC(C)=O)CO[C@@H]1C[C@@H]2O [drawing 12]
half-life [21, 22]: > 8.33 h
half-life [21, 23]: 1.68 h

CC(=O)O[C@H]1C(=O)[C@@]2(C)[C@H]([C@H](OC(=O)c3ccccc3)[C@]3(O)C[C@H](OC(=O)[C@H](OC(=O)COCC(=O)O)[C@@H](NC(=O)c4ccccc4)c4ccccc4)C(C)=C1C3(C)C)[C@]1(OC(C)=O)CO[C@@H]1C[C@@H]2O [drawing 5]
solubility [20]: 840 µg/mL (≈ 866 µM)
half-life [21, 22]: > 8.33 h
half-life [21, 23]: 1.83 h

CC(=O)O[C@H]1C(=O)[C@]2(C)[C@@H](OC(=O)CSCC(=O)O)C[C@H]3OC[C@@]3(OC(C)=O)[C@H]2[C@H](OC(=O)c2ccccc2)[C@]2(O)C[C@H](OC(=O)[C@H](OC(=O)CSCC(=O)O)[C@@H](NC(=O)c3ccccc3)c3ccccc3)C(C)=C1C2(C)C [Compound 12]
IC50 ([1]; HL-60, 72 h): < 0.001 µM
IC50 ([2]; HT-29, 72 h): 0.1 µM
IC50 ([3]; L1210, 72 h): 1 µM
IC50 ([4]; 72 h): 100 µM
IC50 ([5]; MCF7, 72 h): 10 µM
IC50 ([6]; CAPAN-1, 72 h): < 0.001 µM
IC50 ([7]; BT-549, 72 h): < 0.001 µM
IC50 ([9]; 72 h): 1 µM
IC50 ([10]; 72 h): 1 µM
IC50 ([11]; 786-0, 72 h): 1 µM
IC50 ([12]; NCI-H322, 72 h): 0.1 µM
IC50 ([13]; SiHa, 72 h): 10 µM
IC50 ([14]; 72 h): 100 µM
IC50 ([15]; BALB/c3T3, 72 h): 10 µM
IC50 ([16]; 72 h): 10 µM
IC50 ([17]; MOLT-4, 72 h): < 0.001 µM
IC50 ([18]; UCLA P-3, 72 h): 0.001 µM
IC50 ([19]; Homo sapiens, 72 h): 100 µM

CC(=O)O[C@H]1C(=O)[C@]2(C)[C@@H](OC(=O)COCC(=O)O)C[C@H]3OC[C@@]3(OC(C)=O)[C@H]2[C@H](OC(=O)c2ccccc2)[C@]2(O)C[C@H](OC(=O)[C@H](OC(=O)COCC(=O)O)[C@@H](NC(=O)c3ccccc3)c3ccccc3)C(C)=C1C2(C)C [Compound 11]
IC50 ([1]; HL-60, 72 hours, read-out: IC50): < 0.001 µM
IC50 ([2]; HT-29, 72 hours, read-out: IC50): < 0.001 µM
IC50 ([3]; L1210, 72 hours, read-out: IC50): 1 µM
IC50 ([4]; RPMI-7666, 72 hours, read-out: IC50): 100 µM
IC50 ([5]; MCF7, CF-7 / MCF-7, 72 hours, read-out: IC50): 10 µM
IC50 ([6]; Capan-1, 72 hours, read-out: IC50): < 0.001 µM
IC50 ([7]; BT-549, 72 hours, read-out: IC50): < 0.001 µM
IC50 ([9]; PC-3, 72 hours, read-out: IC50): 1 µM
IC50 ([10]; 72 hours, read-out: IC50): 1 µM
IC50 ([11]; 786-0, 72 hours, read-out: IC50): 1 µM
IC50 ([12]; NCI-H322, H322, 72 hours, read-out: IC50): 0.001 µM
IC50 ([13]; SIHA, 72 hours, read-out: IC50): 10 µM
IC50 ([14]; CHO, Chinese hamster ovary, 72 hours, read-out: IC50): 100 µM
IC50 ([15]; BALB/c3T3, BALB/c 3T3, 72 hours, read-out: IC50): 1 µM
IC50 ([16]; SK melanoma, 72 hours, read-out: IC50): 10 µM
IC50 ([17]; MOLT-4, 72 hours, read-out: IC50): < 0.001 µM
IC50 ([18]; UCLA-P-3, 72 hours, read-out: IC50): 0.001 µM
IC50 ([19]; CHO, normal human mammary, 72 hours, read-out: IC50): 100 µM

CC(=O)O[C@H]1C(=O)[C@]2(C)[C@@H](OC(=O)COCC(=O)O)C[C@H]3OC[C@@]3(OC(C)=O)[C@H]2[C@H](OC(=O)c2ccccc2)[C@]2(O)C[C@H](OC(=O)[C@H](OC(=O)COCC(=O)O)[C@@H](NC(=O)c3ccccc3)c3ccccc3)C(C)=C1C2(C)C [drawing 13]
solubility [20]: 500 µg/mL (≈ 460 µM)

CC(=O)O[C@H]1C(=O)[C@@]2(C)[C@H]([C@H](OC(=O)c3ccccc3)[C@]3(O)C[C@H](OC(=O)[C@H](OC(=O)OCCSc4ccccc4)[C@@H](NC(=O)c4ccccc4)c4ccccc4)C(C)=C1C3(C)C)[C@]1(OC(C)=O)CO[C@@H]1C[C@@H]2O [Compound 7]
IC50 ([1]; HL-60, 72 h): < 0.001 µM
IC50 ([2]; HT-29, 72 h): < 0.001 µM
IC50 ([3]; L1210, 72 h): 10 µM
IC50 ([4]; 72 h): 100 µM
IC50 ([5]; MCF7, 72 h): 10 µM
IC50 ([6]; CAPAN-1, 72 h): < 0.001 µM
IC50 ([7]; BT-549, 72 h): < 0.001 µM
IC50 [8]: < 0.001 µM
IC50 ([9]; 72 h): 1 µM
IC50 ([10]; 72 h): 1 µM
IC50 ([11]; 786-0, 72 h): 10 µM
IC50 ([12]; NCI-H322, 72 h): 0.001 µM
IC50 ([13]; SiHa, 72 h): 10 µM
IC50 ([14]; 72 h): 100 µM
IC50 ([15]; BALB/c3T3, 72 h): 10 µM
IC50 ([16]; 72 h): 10 µM
IC50 ([17]; MOLT-4, 72 h): < 0.001 µM
IC50 ([18]; UCLA P-3, 72 h): < 0.001 µM
IC50 ([19]; Homo sapiens, 72 h): 100 µM

CC(=O)O[C@H]1C(=O)[C@@]2(C)[C@H]([C@H](OC(=O)c3ccccc3)[C@]3(O)C[C@H](OC(=O)[C@H](OC(=O)OCCS(=O)(=O)c4ccccc4)[C@@H](NC(=O)c4ccccc4)c4ccccc4)C(C)=C1C3(C)C)[C@]1(OC(C)=O)CO[C@@H]1C[C@@H]2O
half-life [21, 22]: > 8.33 h
half-life [21, 23]: 1.1 h

CC(=O)O[C@H]1C(=O)[C@]2(C)[C@@H](OC(=O)CSCC(=O)O)C[C@H]3OC[C@@]3(OC(C)=O)[C@H]2[C@H](OC(=O)c2ccccc2)[C@]2(O)C[C@H](OC(=O)[C@H](OC(=O)CSCC(=O)O)[C@@H](NC(=O)c3ccccc3)c3ccccc3)C(C)=C1C2(C)C [drawing 14]
solubility [20]: 460 µg/mL (≈ 411 µM)

CC(=O)O[C@H]1C(=O)[C@@]2(C)[C@H]([C@H](OC(=O)c3ccccc3)[C@]3(O)C[C@H](OC(=O)[C@H](OC(=O)CSCC(=O)O)[C@@H](NC(=O)c4ccccc4)c4ccccc4)C(C)=C1C3(C)C)[C@]1(OC(C)=O)CO[C@@H]1C[C@@H]2O [drawing 6]
solubility [20]: 350 µg/mL (≈ 355 µM)
half-life [21, 22]: > 8.33 h
half-life [21, 23]: 5 h

CC(=O)O[C@H]1C(=O)[C@@]2(C)[C@H]([C@H](OC(=O)c3ccccc3)[C@]3(O)C[C@H](OC(=O)[C@H](OC(=O)OCCS(=O)(=O)c4ccc([N+](=O)[O-])cc4)[C@@H](NC(=O)c4ccccc4)c4ccccc4)C(C)=C1C3(C)C)[C@]1(OC(C)=O)CO[C@@H]1C[C@@H]2O [drawing 11]
half-life [21, 22]: > 8.33 h
half-life [21, 23]: 0.117 h
